According to publication PMC9957770, “Mass spectrometry imaging–based assays for aminotransferase activity reveal a broad substrate spectrum for a previously uncharacterized enzyme” (The Journal of Biological Chemistry, 2023):

Target: T1, AtTAT1 (Arabidopsis thaliana, UniProt Q9FN30)
T1 construct: gene At5g53970; pET28a construct of Wang et al. (2016), His-tagged, expressed in E. coli Rosetta-2 (DE3), HisTrap purified
T1 sequence (Q9FN30 1-414): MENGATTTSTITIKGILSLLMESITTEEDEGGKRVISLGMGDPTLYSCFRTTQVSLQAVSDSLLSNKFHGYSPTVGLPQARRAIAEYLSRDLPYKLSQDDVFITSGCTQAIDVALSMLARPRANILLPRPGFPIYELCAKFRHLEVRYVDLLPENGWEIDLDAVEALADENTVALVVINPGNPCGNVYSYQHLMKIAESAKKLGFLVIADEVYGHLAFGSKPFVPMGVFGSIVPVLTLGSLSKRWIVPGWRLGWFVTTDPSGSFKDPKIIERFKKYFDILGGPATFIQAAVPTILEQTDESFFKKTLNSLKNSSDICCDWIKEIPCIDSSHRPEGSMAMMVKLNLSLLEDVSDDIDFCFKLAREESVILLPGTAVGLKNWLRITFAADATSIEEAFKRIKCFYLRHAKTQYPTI
Test: oxime tagging with NIMS mass spectrometry imaging
Type: biochemical
Settings: 10 mM amino donor, 6 mM alpha-ketoglutarate, 0.5 mM PLP, 100 mM HEPES, final pH 7.6 to 8.0, 30 °C, 60 min

Compound	oxime tagging with NIMS mass spectrometry imaging
N[C@@H](Cc1ccccc1)C(=O)O [phenylalanine]	AtTAT1 can use Tyr, histidine (His), leucine (Leu), methionine (Met), phenylalanine (Phe), and tryptophan (Trp)
N[C@@H](Cc1ccc(O)cc1)C(=O)O [tyrosine]	AtTAT1 can use Tyr, histidine (His), leucine (Leu), methionine (Met), phenylalanine (Phe), and tryptophan (Trp)
